# Like-named read-outs stand apart in the source and are kept apart here.
# Legend:
# HUVECs = experiment: Tube formation (tubulogenesis) assay in HUVECs, 18 h; assay type: cell-based, human; settings: Homo sapiens, HUVEC, 18 h; for activity at 0.1 µM: 0.10 µM
# In short: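 HUVECs (passage 1–5) seeded on reduced-growth-factor basement membrane and exposed to compounds overnight at 37°C, 5% CO2, in 2× maintenance medium with 12.5 ng/mL VEGF; 0.5% DMSO vehicle. Calcein AM-stained tube networks imaged and analysed; vehicle-normalized readouts fit to four-parameter logistic, POD set at one SD of vehicle means.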
# [1] = tested on: iCell endothelial cells (human iPSC-derived ECs); experiment: High-content imaging cytotoxicity in iCell endothelial cells, 24 h; assay type: cell-based; settings: Homo sapiens, Endothelial cell, 24 hr; for viability at 0.1 µM / activity at 0.1 µM: 0.10 µM
# In short: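 Readouts were vehicle-normalised and fitted to a four-parameter logistic model. POD was set at one SD beyond 0.5% DMSO control means, and 100 µM was assigned when no response was seen. Cells were monolayers of iCell endothelial cells imaged after 24 h compound exposure using nuclear, mitochondrial and calcein dyes.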
# [2] = HUVECs, 0.00 µM = 100.00, read-out: huvec.mtl.18hr
# [3] = HUVECs, 0.00 µM = 100.00, read-out: huvec.tlps.18hr
# [4] = HUVECs, 0.00 µM = 100.00, read-out: huvec.tta.18hr
# [5] = HUVECs, 0.00 µM = 100.00, read-out: huvec.ttl.18hr
# [6] = iPSC-EC, 0.00 µM control = 100.00, read-out: endo.cyto.24hr
# [7] = iPSC-EC, 0.00 µM control = 100.00, read-out: endo.mito.24hr
# [8] = iPSC-EC, 0.00 µM control = 100.00, read-out: endo.mitoint.24hr
# [9] = iPSC-EC, 0.00 µM control = 100.00, read-out: endo.nma.24hr
# [10] = iPSC-EC, 0.00 µM control = 100.00, read-out: endo.tc.24hrs
structure (smiles),measurement,setting,value
Oc1ccc(-c2ccc(Cl)cc2)cc1 [4'-OH PCB3],activity at 0.01 µM,HUVECs; [2],101%
same,activity at 0.01 µM,HUVECs; [3],106%
same,activity at 0.01 µM,HUVECs; [4],113%
same,activity at 0.01 µM,HUVECs; [5],119%
same,activity at 0.1 µM,HUVECs; [2],94%
same,activity at 0.1 µM,HUVECs; [3],89.7%
same,activity at 0.1 µM,HUVECs; [4],88.3%
same,activity at 0.1 µM,HUVECs; [5],93.3%
same,activity at 1 µM,HUVECs; [2],93.7%
same,activity at 1 µM,HUVECs; [3],76.2%
same,activity at 1 µM,HUVECs; [4],98.5%
same,activity at 1 µM,HUVECs; [5],102%
same,activity at 10 µM,HUVECs; [2],72.2%
same,activity at 10 µM,HUVECs; [3],66.1%
same,activity at 10 µM,HUVECs; [4],68.8%
same,activity at 10 µM,HUVECs; [5],71.7%
same,activity at 100 µM,HUVECs; [2],76.3%
same,activity at 100 µM,HUVECs; [3],34%
same,activity at 100 µM,HUVECs; [4],11.6%
same,activity at 100 µM,HUVECs; [5],8.84%
same,minimal effective concentration,"HUVECs; HUVECs, top concentration 100.00 µM, read-out: huvec.mtl.18hr POD",1.21 µM
same,minimal effective concentration,"HUVECs; HUVECs, top concentration 100.00 µM, read-out: huvec.tlps.18hr POD",0.51 µM
same,minimal effective concentration,"HUVECs; HUVECs, top concentration 100.00 µM, read-out: huvec.tta.18hr POD",5.36 µM
same,minimal effective concentration,"HUVECs; HUVECs, top concentration 100.00 µM, read-out: huvec.ttl.18hr POD",5.16 µM
same,viability at 0.01 µM,[1]; [6],96.3%
same,activity at 0.01 µM,[1]; [7],96.6%
same,activity at 0.01 µM,[1]; [8],113%
same,activity at 0.01 µM,[1]; [9],100%
same,viability at 0.01 µM,[1]; [10],96.3%
same,viability at 0.1 µM,[1]; [6],95%
same,activity at 0.1 µM,[1]; [7],95.4%
same,activity at 0.1 µM,[1]; [8],105%
same,activity at 0.1 µM,[1]; [9],98.9%
same,viability at 0.1 µM,[1]; [10],95%
same,viability at 1 µM,[1]; [6],99.8%
same,activity at 1 µM,[1]; [7],99.9%
same,activity at 1 µM,[1]; [8],108%
same,activity at 1 µM,[1]; [9],97.4%
same,viability at 1 µM,[1]; [10],99.8%
same,viability at 10 µM,[1]; [6],104%
same,activity at 10 µM,[1]; [7],105%
same,activity at 10 µM,[1]; [8],119%
same,activity at 10 µM,[1]; [9],96%
same,viability at 10 µM,[1]; [10],104%
same,viability at 100 µM,[1]; [6],39.7%
same,activity at 100 µM,[1]; [7],40.3%
same,activity at 100 µM,[1]; [8],91.2%
same,activity at 100 µM,[1]; [9],101%
same,viability at 100 µM,[1]; [10],69.7%
same,minimal effective concentration,"[1]; iPSC-EC, top concentration 100.00 µM, read-out: endo.cyto.24hr POD",41.1 µM
same,minimal effective concentration,"[1]; iPSC-EC, top concentration 100.00 µM, read-out: endo.mito.24hr POD",41.1 µM
same,minimal effective concentration,"[1]; iPSC-EC, top concentration 100.00 µM, read-out: endo.mitoint.24hr POD",100 µM
same,minimal effective concentration,"[1]; iPSC-EC, top concentration 100.00 µM, read-out: endo.nma.24hr POD",100 µM
same,minimal effective concentration,"[1]; iPSC-EC, top concentration 100.00 µM, read-out: endo.tc.24hrs POD",52 µM
Oc1ccc(-c2ccc(Cl)cc2)cc1 [4'-OH-PCB 3],minimal effective concentration,"HUVECs; tube formation mtl, read-out: POD huvec.mtl.18hr",1.21 µM
same,minimal effective concentration,"HUVECs; tube formation tlps, read-out: POD huvec.tlps.18hr",0.51 µM
same,minimal effective concentration,"HUVECs; tube formation tta, read-out: POD huvec.tta.18hr",5.36 µM
same,minimal effective concentration,"HUVECs; tube formation ttl, read-out: POD huvec.ttl.18hr",5.16 µM
same,minimal effective concentration,"[1]; endothelial cells (endo), cyto, read-out: POD endo.cyto.24hr",41.1 µM
same,minimal effective concentration,"[1]; endothelial cells (endo), mito, read-out: POD endo.mito.24hr",41.1 µM
same,minimal effective concentration,"[1]; endothelial cells (endo), mitoint, read-out: POD endo.mitoint.24hr",100 µM
same,minimal effective concentration,"[1]; endothelial cells (endo), nma, read-out: POD endo.nma.24hr",100 µM
same,minimal effective concentration,"[1]; endothelial cells (endo), tc, read-out: POD endo.tc.24hr",52 µM

# Reference: publication PMC7377239, “Cardiovascular Effects of Polychlorinated Biphenyls and Their Major Metabolites” (Environmental Health Perspectives, 2020)
